Results reported in US20210275605A1, “COMPOSITIONS COMPRISING BACTERIAL STRAINS” (4D Pharma Research Limited, priority 2018, published 2021).
“And” between values parts separate entries of the source, which are not always exact repeats. Identical values can stand only once.

How the values were obtained:
histone deacetylase [1] = experiment: Histone deacetylase activity in whole HT-29 cells; type: cell-based; conditions: pure substance; for total HDAC activity inhibition: whole cells or lysate not distinguished
Method: The cell line HT-29 was used because histone deacetylase is present.
Cell free supernatants of stationary phase bacterial cultures were isolated by centrifugation and filtering in a 0.22 uM filter. HT-29 cells were used 3 days' post confluence and stepped down in 1 mL DTS 24 hours prior to commencement of the experiment. The HT-29 cells were challenged with 10% cell free supernatant diluted in DTS and was is left to incubate for 48 hours. […] extraction kit and samples were snap frozen prior to HDAC activity measurement. HDAC activity was assessed fluorometrically using the Sigma Aldrich (UK) kit.
(§1) To investigate which metabolites were responsible for the strain-induced HDAC inhibition, different concentrations of hexanoic acid, valeric acid and sodium butyrate were measured for their HDAC inhibition on whole HT-29 cells and on HT-29 cell lysate.

IL-6 = IL-6 secretion by U373 glioblastoma astrocytoma cells (ELISA); type: cell-based, human; conditions: for LPS-induced secretion of IL-6 in U373 cells, SCFAs: LPS pre-treatment 1 h, increasing concentrations of pure fatty acid
Method: MG U373 is a human glioblastoma astrocytoma derived from a malignant tumour and were purchased from Sigma-Aldrich (cat n. 08061901-1VL). MG U373 human glioblastoma astrocytoma cells were grown in MEM (Sigma Aldrich, cat n. M-2279) supplemented with 10% FBS, 1% Pen Strep, 4 mM L-Glut, 1×MEM Non essential Amino Acid solution and 1× Sodium Pyruvate.
Once grown the MG U373 cells were plated on 24-well plate at 100,000 cells/well. The cells were treated with LPS (1 ug/mL) alone or with 10% of bacteria supernatant from MRx0029 for 24 h. A control was also performed where the cells were incubated in untreated media. Afterwards the cell free supernatants were collected, centrifuged at 10,000 g for 3 min at 4° C. IL-6 was measured using the Human IL-6 ELISA Kit from Peprotech (cat n.#900-K16) according to manufacturer instructions.
Human glioblastoma astrocytoma cell line (U373), were maintained in 25 ml MEME 4.5 g/L D-glucose supplemented with 10% heat-inactivated FBS, 4 mM L-Glutamine, 100 U/ml penicillin, 100 μg/ml streptomycin and 5 μg/ml plasmocin, 1% Non-Essential Amino Acids, 1% Sodium Pyruvate (referred to as full growth media).
Cells were plated in 24-well plates at a density of 100,000 cells/well in 1 ml of full growth media and left to rest at 37° C./5% CO2 for 72 h. On the day of the treatment, the media was removed from each well, cells were rinsed with 0.5 ml wash media (serum free MEME), 0.9 ml stimulation media (MEME media containing 2% FBS) containing 1 μg/ml LPS was added to the appropriate wells and incubated at 37° C. and 5% CO2. After 1 h pre-incubation, cells were removed from CO2 incubator and treated with 100 μl bacteria supernatant. YCFA+ media was used as control. […]
Secretion of IL-6 was analysed using hIL-6 Standard ELISA Kits, according to the manufacturer's protocol in the cell-free supernatants from U373 cells treated as described above. Samples were measured at 405 nm with correction wavelength set at 655 nm on a microplate reader (iMark, Bio-Rad). Raw data were plotted and analysed using GraphPad Prism 7 software. […]

histone deacetylase [2] = experiment: HDAC inhibition on HT-29 cell lysate; type: biochemical; conditions: pure substance, different concentrations
Method: as §1

C57BL/6J mice = experiment: DSS-induced colitis mouse model, ileum histology; type: in vivo; conditions: for COLITIS SCORING mean ± SEM: group mean, n = 9, 3% DSS; for COLITIS SCORING mean ± SEM / COLITIS SCORING (sum) / Depletion of goblet cells score / Edema score / Erosion (epithelial cell damage) score / Leucocytes Infiltration score: Day 7; for COLITIS SCORING (sum) / Depletion of goblet cells score / Edema score / Erosion (epithelial cell damage) score / Leucocytes Infiltration score: ileum histology, individual mouse, 3% DSS
Method: The objective of this study was to determine the prophylactic efficacy of MRX029 in a DSS-induced colitis mouse model, upon repeated oral administration.
Tacrolimus was dosed at 1 mg/kg/day
Valproic acid was dosed at 200 mg/kg/day
PBS, YCFA and bacterial cultures were dosed at 200 μL/day
PBS, YCFA and live bacteria were be daily administered per os (PO) under a fixed volume of 200 μL/mouse
Tacrolimus will be daily administered subcutaneously (SC) under a volume of 10 mL/kg Valproic acid will be daily administered per os (PO) under a volume of 10 mL/kg
Each of sixty three, 6 week old healthy male C57BL/6J mice were obtained from Charles River (France) and individually identified and labelled with a specific code. Each treatment group (9 animals/group) were housed in three different cages.
Animals were dosed by extracting the dosing aliquot from the Hungate tube using a syringe and a 0.8×40 mm needle injected through the septum. The Hungate tube was mixed by inversion before the dosing aliquot was extracted. The first 50-100 μL through the gavage needle and each mouse was dose with 200 μL of culture by oral gavage
Days −7 to Day −1: Treatment with bacteria and reference substances according the treatment table above • Once daily oral administration of PBS, YCF A or Bacteria—200 μL per mouse • Once daily oral administration of Valproic acid at 200 mg/kg/day under a volume of 10 mL/kg
From Day O to Day+7: DSS administration • Administration of 3% DSS in the drinking water
From Day O to Day+6: Treatment with bacteria and reference substances • Once daily oral administration of PBS, YCFA or Bacteria—200 μL per mouse • Once daily oral administration of Valproic acid-200 mg/kg in sterile distilled water—10 mL/kg • Once daily SC administration of Tacrolimus—1 mg/kg in sterile 1% Tween80, 0.9% NaCl −10 mL/kg
Day +7: Sacrifice of all groups and tissue harvesting • Euthanasia of animals was performed under gas anesthesia (lsoflurane) followed by exsanguination and cervical dislocation. Euthanasia methods used are those recommended for mice and rats by European directive 20 I 0/63/CE and the procedure describing euthanasia methods was approved by IACUC. • Laparotomy and ileum harvesting, just upstream of the caecum (from 0.5 cm and on)—all tissue harvested from exactly the same area between all mice: • 1.5 cm swiss-rolled ileum was harvested for histology, the closest to the caecum
Ileum Swiss-rolls specimens were embedded in paraffin and sections of 5 μm thickness were cut and mounted on SuperFrost Ultra plus glass slides. HP (Hematoxylin-Phloxin) staining & AB-PAS (Alcian Blue-Periodic Acid Schiff) staining were performed to visualize histomorphologic changes. A scoring based on edema, erosion, loss of crypts/goblet cells and infiltrates was established on each animal, using the criteria in the following table: […]

CCCCC(=O)O [valeric acid]
total HDAC activity inhibition (histone deacetylase [1]): significant HDAC inhibition | total HDAC activity inhibition (histone deacetylase [1]; listed as Valeric acid): inhibited total HDAC activity

CCCC(=O)[O-].[Na+] [sodium butyrate]
HDAC inhibition on whole HT-29 cells (histone deacetylase [1]; different concentrations): significant (P<0.05) inhibition of HDAC activity | total HDAC activity inhibition (histone deacetylase [1]): significant HDAC inhibition | LPS-induced secretion of IL-6 in U373 cells, SCFAs (IL-6): inhibited LPS-induced secretion of IL-6 in U373 cells in a concentration-dependent manner | basal IL-6 secretion in U373 cells (IL-6; absence of LPS): decreased the basal level of IL-6 | HDAC inhibition on HT-29 cell lysate (histone deacetylase [2]): significant (P<0.05) inhibition of HDAC activity

CCCC(CCC)C(=O)O [Valproic acid, Valproic Acid]
COLITIS SCORING mean ± SEM (C57BL/6J mice): 0.67 | COLITIS SCORING (sum) (C57BL/6J mice): 2 (2×) and 1 (2×) and 0 (5×) | Depletion of goblet cells score (C57BL/6J mice): 0 | Edema score (C57BL/6J mice): 0 | Erosion (epithelial cell damage) score (C57BL/6J mice): 0 | Leucocytes Infiltration score (C57BL/6J mice): 2 (2×) and 1 (2×) and 0 (5×)

CCCCCC(=O)O [hexanoic acid]
total HDAC activity inhibition (histone deacetylase [1]): did show significant inhibitory activity | LPS-induced secretion of IL-6 in U373 cells, SCFAs (IL-6): did not inhibit IL-6 secretion

C=CC[C@@H]1/C=C(\C)C[C@H](C)C[C@H](OC)[C@H]2O[C@@](O)(C(=O)C(=O)N3CCCC[C@H]3C(=O)O[C@H](/C(C)=C/[C@@H]3CC[C@@H](O)[C@H](OC)C3)[C@H](C)[C@@H](O)CC1=O)[C@H](C)C[C@@H]2OC [Tacrolimus]
leukocyte infiltration in the ileum, group result (C57BL/6J mice; DSS animals versus vehicle DSS groups): reduced leukocyte infiltration comparable to controls | COLITIS SCORING mean ± SEM (C57BL/6J mice): 0.44 | COLITIS SCORING (sum) (C57BL/6J mice): 0 (6×) and 2 and 1 (2×) | Depletion of goblet cells score (C57BL/6J mice): 0 | Edema score (C57BL/6J mice): 0 | Erosion (epithelial cell damage) score (C57BL/6J mice): 0 | Leucocytes Infiltration score (C57BL/6J mice): 0 (6×) and 2 and 1 (2×)
